Target: CSF-1R (Homo sapiens, UniProt P07333)
Test: Peptide (non-phosphorylated) assay, fluorescence polarization competition immunoassay
Format: biochemical
Conditions: 0.7 nM CSF-1R, 308 μM SYEGNSYTFIDPTQ peptide, 1 mM ATP, 80 min; mean of at least three determinations; read-out: c-fms Peptide IC50
Procedure: The kinase reaction was initiated by adding 1 μL of 10 mM ATP in assay buffer. […] Positive and negative control wells were included on each plate, where 4% DMSO in assay buffer was substituted for the compound; in addition, positive control wells received 1.2 μL of 50 mM EDTA before the start of the reaction.
The plates were covered and incubated at room temperature for 80 min. Reactions were stopped by addition of 1.2 μL of 50 mM EDTA. Each well then received 10 μL of a 1:1:3 mixture of 10× anti-phosphotyrosine antibody, 10×PTK green tracer, and FP dilution buffer, respectively (Cat. # P2837, Invitrogen, Carlsbad, Calif.). The plates were covered, incubated for 30 min at room temperature, and the fluorescence polarization was read on an Analyst plate reader (Molecular Devices).

CSF-1R, sequence (P07333 20-972): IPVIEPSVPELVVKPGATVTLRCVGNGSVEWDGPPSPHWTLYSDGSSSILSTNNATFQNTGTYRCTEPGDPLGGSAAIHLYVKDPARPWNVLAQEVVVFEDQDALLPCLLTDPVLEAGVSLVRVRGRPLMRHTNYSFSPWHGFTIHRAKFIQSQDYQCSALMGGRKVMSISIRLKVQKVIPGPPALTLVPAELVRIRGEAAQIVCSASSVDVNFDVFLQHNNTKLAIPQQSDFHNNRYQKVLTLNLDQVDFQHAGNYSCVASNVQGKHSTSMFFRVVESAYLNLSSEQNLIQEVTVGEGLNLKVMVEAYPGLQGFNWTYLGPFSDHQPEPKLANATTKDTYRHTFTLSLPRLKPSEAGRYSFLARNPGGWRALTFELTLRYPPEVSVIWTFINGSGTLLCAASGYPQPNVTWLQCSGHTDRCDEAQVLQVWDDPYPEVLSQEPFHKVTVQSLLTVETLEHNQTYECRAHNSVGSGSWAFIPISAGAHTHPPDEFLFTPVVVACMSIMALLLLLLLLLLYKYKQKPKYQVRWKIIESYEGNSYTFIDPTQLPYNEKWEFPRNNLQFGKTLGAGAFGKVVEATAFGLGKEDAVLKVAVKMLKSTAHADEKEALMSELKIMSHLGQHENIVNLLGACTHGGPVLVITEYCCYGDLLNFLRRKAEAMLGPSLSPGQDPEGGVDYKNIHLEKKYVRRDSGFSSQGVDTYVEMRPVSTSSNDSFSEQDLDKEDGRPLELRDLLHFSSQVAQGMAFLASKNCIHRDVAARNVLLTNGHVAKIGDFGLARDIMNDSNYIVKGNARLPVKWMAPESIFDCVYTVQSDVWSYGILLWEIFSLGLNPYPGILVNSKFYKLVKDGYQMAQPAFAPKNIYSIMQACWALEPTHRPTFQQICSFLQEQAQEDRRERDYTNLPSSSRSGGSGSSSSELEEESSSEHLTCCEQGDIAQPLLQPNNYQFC

| Compound | IC50 |
| --- | --- |
| CCN1CCCCC1c1ccc(Nc2ncc3c(=O)c(C(=O)NOC)cn(-c4ccc5c(c4)CCC5)c3n2)cc1 (stereo not drawn) [Cpd 244, 2-[4-(1-ethyl-piperidin-2-yl)-phenylamino]-8-indan-5-yl-5-oxo-5,8-dihydro-pyrido[2,3-d]pyrimidine-6-carboxylic acid methoxy-amide] | 0.64 nM |
| CONC(=O)c1cn(-c2ccc3c(c2)CCC3)c2nc(Nc3cccc(C4CCCN(C)C4)c3)ncc2c1=O (stereo not drawn) [Cpd 271, 8-indan-5-yl-2-[3-(1-methyl-piperidin-3-yl)-phenylamino]-5-oxo-5,8-dihydro-pyrido[2,3-d]pyrimidine-6-carboxylic acid methoxy-amide] | 3.2 nM |
| CCc1ccc(-n2cc(C(=O)NOC)c(=O)c3cnc(Nc4ccc(-c5ccc(N(C)C)cc5)cc4)nc32)cc1 [Cpd 306, 2-(4′-dimethylamino-biphenyl-4-ylamino)-8-(4-ethyl-phenyl)-5-oxo-5,8-dihydro-pyrido[2,3-d]pyrimidine-6-carboxylic acid methoxy-amide] | 14 nM |
| CCc1ccc(-n2cc(C(=O)NOC(C)C)c(=O)c3cnc(Nc4ccc(C5CCN(CCCO)CC5)cc4)nc32)cc1 [Cpd 187, 8-(4-ethyl-phenyl)-2-{4-[1-(3-hydroxy-propyl)-piperidin-4-yl]-phenylamino}-5-oxo-5,8-dihydro-pyrido[2,3-d]pyrimidine-6-carboxylic acid isopropoxy-amide] | 0.7 nM |
| CONC(=O)c1cn(-c2ccc3c(c2)CCC3)c2nc(Nc3ccc(C(=O)NS(C)(=O)=O)cc3)ncc2c1=O [Cpd 214, 8-indan-5-yl-2-(4-methanesulfonylaminocarbonyl-phenylamino)-5-oxo-5,8-dihydro-pyrido[2,3-d]pyrimidine-6-carboxylic acid methoxy-amide] | 1.6 nM |
| CONC(=O)c1cn(-c2ccc3c(c2)CCC3)c2nc(Nc3ccc(CCS(C)(=O)=O)cc3)ncc2c1=O [Cpd 71, 8-indan-5-yl-2-[4-(2-methanesulfonyl-ethyl)-phenylamino]-5-oxo-5,8-dihydro-pyrido[2,3-d]pyrimidine-6-carboxylic acid methoxy-amide] | 0.64 nM |
| CONC(=O)c1cn(-c2cnc3c(c2)CCC3)c2nc(Nc3ccc(CCO)cc3)ncc2c1=O [Cpd 227, 8-(6,7-dihydro-5H-[1]pyrindin-3-yl)-2-[4-(2-hydroxy-ethyl)-phenylamino]-5-oxo-5,8-dihydro-pyrido[2,3-d]pyrimidine-6-carboxylic acid methoxy-amide] | 10 nM |
| CN1CCN(c2ccc(Nc3ncc4c(=O)c(C(N)=O)cn(Cc5ccccc5)c4n3)cc2)CC1 [Cpd 114, 8-benzyl-2-[4-(4-methyl-piperazin-1-yl)-phenylamino]-5-oxo-5,8-dihydro-pyrido[2,3-d]pyrimidine-6-carboxylic acid amide] | 9.6 nM |
| CCc1ccc(-n2cc(C(=O)NOC)c(=O)c3cnc(Nc4ccc(C5CCN(CCO)CC5)cc4)nc32)cc1 [Cpd 95, 8-(4-ethyl-phenyl)-2-{4-[1-(2-hydroxy-ethyl)-piperidin-4-yl]-phenylamino}-5-oxo-5,8-dihydro-pyrido[2,3-d]pyrimidine-6-carboxylic acid methoxy-amide] | 1.8 nM |
| CCONC(=O)c1cn(C2CCCCC2)c2nc(Nc3ccc(C4CCN(C)CC4)cc3)ncc2c1=O [Cpd 141, 8-cyclohexyl-2-[4-(1-methyl-piperidin-4-yl)-phenylamino]-5-oxo-5,8-dihydro-pyrido[2,3-d]pyrimidine-6-carboxylic acid ethoxy-amide] | 1.3 nM |
| CONC(=O)c1cn(-c2ccc(OC(F)(F)F)cc2)c2nc(Nc3ccc(C4CCNCC4)cc3)ncc2c1=O [Cpd 176, 5-oxo-2-(4-piperidin-4-yl-phenylamino)-8-(4-trifluoromethoxyphenyl)-5,8-dihydro-pyrido[2,3-d]pyrimidine-6-carboxylic acid methoxy-amide] | 0.59 nM |
| CCc1ccc(-n2cc(C(=O)NOC)c(=O)c3cnc(Nc4ccc5c(c4)CNCC5)nc32)cc1 [Cpd 282, 8-(4-ethyl-phenyl)-5-oxo-2-(1,2,3,4-tetrahydro-isoquinolin-7-ylamino)-5,8-dihydro-pyrido[2,3-d]pyrimidine-6-carboxylic acid methoxy-amide] | 0.2 nM |
| C#Cc1ccc(-n2cc(C(=O)NOC)c(=O)c3cnc(Nc4ccc(CCN5CCCC5)cc4)nc32)cc1 [Cpd 32, 8-(4-ethynyl-phenyl)-5-oxo-2-[4-(2-pyrrolidin-1-yl-ethyl)-phenylamino]-5,8-dihydro-pyrido[2,3-d]pyrimidine-6-carboxylic acid methoxy-amide] | 3.7 nM |
| CONC(=O)c1cn(-c2ccc3c(c2)CCC3)c2nc(Nc3ccc(C4C[C@@]5(C)O[C@@](C)(C4)[C@H]4OC(C)(C)O[C@H]45)cc3)ncc2c1=O (stereo partly drawn) [Cpd 315, 8-indan-5-yl-5-oxo-2-[4-(2aR,1R,7S,6aS)-(1,4,4,7-tetramethyl-3,5,11-trioxa-tricyclo[5.3.1.0^2,6]undec-9-yl)-phenylamino]-5,8-dihydro-pyrido[2,3-d]pyrimidine-6-carboxylic acid methoxy-amide] | 0.5 nM |
| CN1CCC(c2ccc(Nc3ncc4c(=O)c(C(=O)O)cn(-c5ccc6c(c5)CCC6)c4n3)cc2)CC1 [Cpd 222, 8-indan-5-yl-2-[4-(1-methyl-piperidin-4-yl)-phenylamino]-5-oxo-5,8-dihydro-pyrido[2,3-d]pyrimidine-6-carboxylic acid] | 29 nM |
| CONC(=O)c1cn(-c2ccc3c(c2)CCC3)c2nc(Nc3ccc(CCNCCO)cc3)ncc2c1=O [Cpd 97, 2-{4-[2-(2-hydroxy-ethylamino)-ethyl]-phenylamino}-8-indan-5-yl-5-oxo-5,8-dihydro-pyrido[2,3-d]pyrimidine-6-carboxylic acid methoxy-amide] | 0.63 nM |
| CCc1ccc(-n2cc(C(=O)NOC(C)C)c(=O)c3cnc(Nc4ccc(C5CCN(CCO)CC5)cc4)nc32)cc1 [Cpd 184, 8-(4-ethyl-phenyl)-2-{4-[1-(2-hydroxy-ethyl)-piperidin-4-yl]-phenylamino}-5-oxo-5,8-dihydro-pyrido[2,3-d]pyrimidine-6-carboxylic acid isopropoxy-amide] | 0.9 nM |
| CCONC(=O)c1cn(-c2ccc(CC)cc2)c2nc(Nc3ccc(CCN4CCN(C)CC4)cc3)ncc2c1=O [Cpd 57, 8-(4-ethyl-phenyl)-2-{4-[2-(4-methyl-piperazin-1-yl)-ethyl]-phenylamino}-5-oxo-5,8-dihydro-pyrido[2,3-d]pyrimidine-6-carboxylic acid ethoxy-amide] | 0.6 nM |
| CONC(=O)c1cn(-c2ccc3c(c2)CCC3)c2nc(Nc3ccc(CCN4CCS(=O)(=O)CC4)cc3)ncc2c1=O [Cpd 206, 2-{4-[2-(1,1-dioxo-1λ^6-thiomorpholin-4-yl)-ethyl]-phenylamino}-8-indan-5-yl-5-oxo-5,8-dihydro-pyrido[2,3-d]pyrimidine-6-carboxylic acid methoxy-amide] | 1.2 nM |
| CONC(=O)c1cn(-c2ccc3c(c2)CCC3)c2nc(Nc3cccc(C4(O)CCNC4)c3)ncc2c1=O (stereo not drawn) [Cpd 274, 2-[3-(3-hydroxy-pyrrolidin-3-yl)-phenylamino]-8-indan-5-yl-5-oxo-5,8-dihydro-pyrido[2,3-d]pyrimidine-6-carboxylic acid methoxy-amide] | 0.44 nM |
| CONC(=O)c1cn(C2CCCC2)c2nc(Nc3ccc(CCN4CCCC4)cc3)ncc2c1=O [Cpd 39, 8-cyclopentyl-5-oxo-2-[4-(2-pyrrolidin-1-yl-ethyl)-phenylamino]-5,8-dihydro-pyrido[2,3-d]pyrimidine-6-carboxylic acid methoxy-amide] | 1.1 nM |

— patent US20080114007A1 (priority 2006, published 2008)
